Values after ≈ are worked out from the molar mass of the structure shown.
Columns and labels:
[1] = tested on: Staphylococcus aureus 133; experiment: Minimum inhibitory concentration (MIC), liquid dilution test; format: cell-based; settings: Isosensitest medium, 10^5 organisms per ml, 37° C., 18-24 hours, lowest concentration with no visible bacterial growth
Description: (§1) Determination of the Minimum Inhibitory Concentration (MIC): The MIC is determined in a liquid dilution test. Overnight cultures of the test organisms are diluted to a cell count of 10^5 organisms per ml in Isosensitest medium (Difco, Irvine, USA) and are incubated with dilutions of the test substances (1:2 dilution stages). Exceptions are the tests with S. pneumoniae […], which are conducted in BHI broth (Difco) plus 20% bovine serum, and with H. influenzae, which are conducted in BHI broth (Difco) plus 20% bovine serum, 10 μg/ml hemin and 1% Isovitale (Becton Dickinson, New Jersey, USA). The cultures are incubated at 37° C. for 18-24 hours; S. pneumoniae and H. influenzae in the presence of 8-10% CO2. The lowest concentration of each substance at which there is no longer any visible bacterial growth is defined as the MIC. The MICs in μmol/l of some compounds of the invention against a series of test organisms are listed by way of example in the table below.

[2] = tested on: Haemophilus influenzae Spain 7; experiment: as above; format: cell-based; settings: BHI broth plus 20% bovine serum, 10 μg/ml hemin and 1% Isovitale, 37° C., 18-24 hours, 8-10% CO2, lowest concentration with no visible bacterial growth
Description: as §1

bacteria = settings: described in the literature (J. Am. Chem. Soc. 1987, J. Org. Chem. 1994, J. Antibiot. 1997); cited from earlier work

| SMILES | MIC [1] [µM] | MIC Haemophilus influenzae Spain 7 [2] [µmol/L] | antibacterial activity (bacteria) |
| --- | --- | --- | --- |
| CC(C)[C@H](NC(=O)C[C@H](NC(=O)c1cc(-c2ccccc2)ccn1)c1ccccc1)C(=O)[C@@H]1C(=O)NC(=O)[C@H]1C [Example 6, N-{(1S)-3-[((1S)-2-Methyl-1-{[(3R,4S)4-methyl-2,5-dioxo-3-pyrrolidinyl]-carbonyl}propyl)amino]-3-oxo-1-phenylpropyl}-4-phenyl-2-pyridinecarboxamide] | 7.81 (≈ 4.22 µg/mL) | 15.63 | – |
| CC(C)[C@H](NC(=O)C[C@H](NC(=O)c1cccc(F)n1)c1ccccc1)C(=O)[C@@H]1C(=O)NC(=O)[C@H]1C [Example 2, 6-Fluoro-N-{(1S)-3-[((1S)-2-methyl-1-{[(3R,4S)-4-methyl-2,5-dioxo-3-pyrrolidinyl]-carbonyl}propyl)amino]-3-oxo-1-phenylpropyl}-2-pyridinecarboxamide] | 15.6 (≈ 7.54 µg/mL) | 7.81 | – |
| C/C=C/C=C/C(=O)N[C@@H](CC(=O)N[C@H](C(=O)[C@@H]1C(=O)NC(=O)[C@H]1C)C(C)C)c1ccccc1 [moiramide B] | – | – | having antibacterial activity |
| C/C=C/C=C/C=C/C(=O)N[C@@H](CC(=O)N[C@H](C(=O)[C@@H]1C(=O)NC(=O)[C@H]1C)C(C)C)c1ccccc1 [andrimid] | – | – | having antibacterial activity |
| C/C=C/C=C/C=C/C(=O)N[C@@H](CC(=O)N[C@H](C(=O)[C@@]1(O)C(=O)NC(=O)[C@H]1C)C(C)C)c1ccccc1 [moiramide C] | – | – | inactive |
| C[C@@H]1C(=O)NC(=O)[C@H]1C(=O)[C@@H](NC(=O)C[C@H](NC(=O)c1cc2cc(F)ccc2[nH]1)c1ccccc1)C1CCCC1 [Example 48, N-[(1S)-3-({(1S)-1-Cyclopentyl-2-[(3R,4S)4-methyl-2,5-dioxo-3-pyrrolidinyl]-2-oxoethyl}amino)-3-oxo-1-phenylpropyl]-5-fluoro-1 H-indole-2-carboxamide] | 0.98 (≈ 0.536 µg/mL) | 15.63 | – |
| COc1ccc(CC(=O)N[C@@H](CC(=O)N[C@H](C(=O)[C@@H]2C(=O)NC(=O)[C@H]2C)C(C)C)c2ccccc2)c(Cl)c1Cl [Example 109] | 0.98 (≈ 0.565 µg/mL) | 62.5 | – |
| C[C@@H]1C(=O)NC(=O)[C@H]1C(=O)C(NC(=O)C[C@H](NC(=O)c1ccccn1)c1ccccc1)C1CCCC1 (stereo partly drawn) [Example 9, N-[(1S)-3-({1-Cyclopentyl-2-[(3R,4S)-4-methyl-2,5-dioxo-3-pyrrolidinyl]-2-oxoethyl}amino)-3-oxo-1-phenylpropyl]-2-pyridinecarboxamide] | 7.81 (≈ 3.83 µg/mL) | 62.5 | – |
